Key:
[1] = biological target: T1, human 5-HT7B (h5-HT7b) receptors (Homo sapiens, UniProt P34969); test: Competition radioligand binding, h5-HT7b; details: [3H]5-CT; membranes of HEK 293 cells; read-out: Ki 5-HT7
T1 construct: expressed in transfected cells
Source text: The compounds of the invention interact with 5-HT receptors and show selectivity for 5-HT receptors. The 5-HT receptor binding properties of the compounds are identified by competitive radioligand binding assays wherein membranes prepared from transfected cells expressing the 5-HT receptor subtype of interest. “Binding constants” refers herein to Ki values measured by inhibition of the binding of radiolabelled ligands that are selective for the 5-HT receptor type being studied. For 5-HT7 receptors, Ki values are determined by measuring the inhibition of 5-carboxamidotryptamine (5-CT) binding, wherein 5-HT7 receptors were incubated with the radiolabelled high affinity ligand, 5-carboxamidotryptamine ([^3H]5-CT), in the presence and absence of the compounds of the invention, at varying concentrations. The compounds of the invention have high binding affinity for serotonin receptors as measured by dissociation constant Ki. […] “Selectivity” for receptor type, in the context of this invention, refers to the ratio of binding constants for the two receptor types being compared. […] The compounds of the present invention preferably show selectivity for 5-HT7 receptors over other serotonin receptor subtypes of greater than about 100. The compounds of the present invention also preferably show selectivity for 5-HT7 receptors over other receptor types, such as dopamine D2, of greater than about 100.
(§1) Cells and Membrane Preparation: HEK 293 cells stably expressing human 5-HT7B (h5-HT7b) receptors were grown in Dulbecco's Modified Eagle's Medium (DMEM; Gibco) without sodium pyruvate and containing 4.5 g/L glucose, L-glutamine/penicillin-streptomycin (Gemini), 10% fetal bovine serum and 250 mg/l of the antibiotic, G418 (Geneticin) as previously described (Jasper, J. R., Kosaka, A., To, Z. P., Chang, D. J. and Eglen, R. M. (1997) Cloning, expression and pharmacology of a truncated splice variant of the human 5-ht7 receptor (h5-ht7b). Br. J. Pharmacol. 122(1):126-132.). Cell pellets were homogenized in approximately 50 mL of homogenization buffer (buffer A) containing: 50 mM Tris (pH 7.4), 2 mM EGTA, 0.32 M sucrose, 10 μM PMSF, 1 μg/mL leupeptin, 5 μg/mL Pepstatin A, and 5 μg/mL aprotinin using an UltraTurax homogenizer (Tekmar Company, Cincinnati, Ohio) at 80% maximum setting three times for 10 sec. Cell pellets were centrifuged at 4° C. at 1,500×g for 10 min in a Beckman GS-6R centrifuge. Pellets were resuspended in buffer A, homogenized and centrifuged as described above. Pooled supernatants were transferred to centrifuge bottles and centrifuged at 4° C. at 20,000×g for 30 min in a Beckman J2-HS centrifuge. Cell pellets were resuspended in buffer A and were centrifuged at 4° C. at 20,000×g for 30 min. Cell pellets were resuspended in buffer A and stored at −70° C. in aliquots of 2.5 mg/mL total membrane protein. Total membrane protein was assessed utilizing a BCA kit (Pierce; Rockford, Ill.). Membranes containing human 5-HT1a or 5HT2a receptors expressed in CHO K1 cells were prepared as described above.
Radioligand Binding Assays: For 5-HT7 saturation binding experiments, HEK-293 cell membranes expressing h5-HT7 receptors (5-10 μg membrane protein/well) were incubated in duplicate with [^3H]5-CT (approximately 0.2 nM) in binding assay buffer containing: 50 mM HEPES (pH 7.4), 0.5 mM EDTA, 10 mM MgCl2, 10 μM pargyline to inhibit monoamine oxidase activity, and 0.1% sodium ascorbate, in a final volume of 200 μL in 96-well polypropylene plates for 2 hours at 37° C. Nonspecific binding was determined by incubating membranes with 1 μM 5-HT. All radioligand binding assays were stopped by rapid filtration onto 96-well GF/C filter plates (Packard) soaked in 0.1% polyethylenimine. Filters were washed three times with ice-cold phosphate-buffered saline (PBS) wash buffer containing 50 mM NaPO4 (pH 7.4), 0.9% NaCl, 2 mM MgCl2 and 0.02% NaN3. The filters were then counted using liquid scintillation in a Packard Topcount scintillation counter. […]

human 5HT2a receptors = biological target: T2, human 5HT2a receptors (Homo sapiens, UniProt P28223); test: Competition radioligand binding, 5-HT2A; details: [3H]Ketanserin; membranes of CHO K1 cells; read-out: Ki 5-HT2A
T2 construct: expressed in transfected cells; host or cells: CHO K1 cells
T2 sequence (P28223 whole entry): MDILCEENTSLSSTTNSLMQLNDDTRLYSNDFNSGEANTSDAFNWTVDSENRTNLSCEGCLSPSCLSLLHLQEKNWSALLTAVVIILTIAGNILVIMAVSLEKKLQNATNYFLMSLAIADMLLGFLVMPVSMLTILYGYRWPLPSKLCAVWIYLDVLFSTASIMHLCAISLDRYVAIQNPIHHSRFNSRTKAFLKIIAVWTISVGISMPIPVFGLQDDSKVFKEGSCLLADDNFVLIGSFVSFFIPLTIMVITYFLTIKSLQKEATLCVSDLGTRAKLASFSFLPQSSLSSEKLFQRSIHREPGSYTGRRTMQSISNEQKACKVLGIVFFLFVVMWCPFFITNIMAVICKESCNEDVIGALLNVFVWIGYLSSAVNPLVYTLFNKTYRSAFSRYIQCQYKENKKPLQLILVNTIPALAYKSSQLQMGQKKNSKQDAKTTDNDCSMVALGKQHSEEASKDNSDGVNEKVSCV
Protocol: as §1
(§2) Radioligand Binding Assays: For 5-HT7 saturation binding experiments, HEK-293 cell membranes expressing h5-HT7 receptors (5-10 μg membrane protein/well) were incubated in duplicate with [^3H]5-CT (approximately 0.2 nM) in binding assay buffer containing: 50 mM HEPES (pH 7.4), 0.5 mM EDTA, 10 mM MgCl2, 10 μM pargyline to inhibit monoamine oxidase activity, and 0.1% sodium ascorbate, in a final volume of 200 μL in 96-well polypropylene plates for 2 hours at 37° C. Nonspecific binding was determined by incubating membranes with 1 μM 5-HT. All radioligand binding assays were stopped by rapid filtration onto 96-well GF/C filter plates (Packard) soaked in 0.1% polyethylenimine. Filters were washed three times with ice-cold phosphate-buffered saline (PBS) wash buffer containing 50 mM NaPO4 (pH 7.4), 0.9% NaCl, 2 mM MgCl2 and 0.02% NaN3. The filters were then counted using liquid scintillation in a Packard Topcount scintillation counter.
(§3) Data Analysis: Radioligand binding experiments were analyzed with Prism™ (Graphpad, San Diego, Calif.), a computer graphics and statistics program. IC50 values and Hill slopes for compounds were generated by nonlinear regression using Prism™. Values for Ki calculated from IC50 values by the Cheng and Prussoff equation (Cheng, Y. and Prusoff, W. H., (1973), “Relationship between the inhibition constant (Ki) and the concentration of inhibitor which causes 50 per cent inhibition (I50) of an enzymatic reaction.” Biochemical Pharmacol. 22:3099-3108).

[2] = biological target: T3, human D2S dopamine (hD2S-DA) receptors (Homo sapiens, UniProt P14416); test: Competition radioligand binding, hD2S dopamine; details: [3H]Spiperone; membranes of A9 L cells; read-out: Ki D2
T3 construct: purchased Receptor Biology, Inc. (Beltsville, Md.); host or cells: A9 L cells
T3 sequence (P14416 1-414 isoform P14416-2): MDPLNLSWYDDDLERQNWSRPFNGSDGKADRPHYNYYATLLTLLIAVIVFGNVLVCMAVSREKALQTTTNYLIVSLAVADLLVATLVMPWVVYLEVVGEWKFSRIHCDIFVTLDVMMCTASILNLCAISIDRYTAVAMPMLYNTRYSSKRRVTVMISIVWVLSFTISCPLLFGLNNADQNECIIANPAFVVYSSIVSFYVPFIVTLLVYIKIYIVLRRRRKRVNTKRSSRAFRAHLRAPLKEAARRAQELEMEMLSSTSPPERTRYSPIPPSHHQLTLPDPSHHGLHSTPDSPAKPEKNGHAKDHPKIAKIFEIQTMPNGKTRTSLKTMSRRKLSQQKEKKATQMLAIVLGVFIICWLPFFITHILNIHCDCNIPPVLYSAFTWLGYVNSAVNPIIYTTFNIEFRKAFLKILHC

[3] = biological target: T4, human 5-HT6 (h5-HT6) receptors (Homo sapiens, UniProt P50406); test: Competition radioligand binding, h5-HT6; details: [3H]LSD; membranes of HEK-293 cells; read-out: Ki 5-HT6
T4 construct: purchased Receptor Biology, Inc. (Beltsville, Md.); host or cells: HEK-293 cells
T4 sequence (P50406 whole entry): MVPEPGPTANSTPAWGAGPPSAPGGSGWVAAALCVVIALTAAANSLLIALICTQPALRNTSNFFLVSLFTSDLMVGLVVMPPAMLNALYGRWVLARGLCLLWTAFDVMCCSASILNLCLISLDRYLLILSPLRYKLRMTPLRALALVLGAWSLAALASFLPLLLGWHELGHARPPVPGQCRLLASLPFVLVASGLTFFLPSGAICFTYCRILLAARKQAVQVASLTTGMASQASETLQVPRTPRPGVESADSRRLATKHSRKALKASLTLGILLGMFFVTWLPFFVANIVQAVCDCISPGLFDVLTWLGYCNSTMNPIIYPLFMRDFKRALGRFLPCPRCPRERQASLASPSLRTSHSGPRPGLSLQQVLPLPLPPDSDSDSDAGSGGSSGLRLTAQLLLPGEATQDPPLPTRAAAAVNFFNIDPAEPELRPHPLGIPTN

human 5-HT1a receptors = biological target: T5, human 5-HT1a receptors (Homo sapiens, UniProt P08908); test: Competition radioligand binding, h5-HT1a; details: [3H]5-CT; membranes of CHO K1 cells; read-out: Ki 5-HT1A
T5 construct: expressed in transfected cells; host or cells: CHO K1 cells
T5 sequence (P08908 1-422): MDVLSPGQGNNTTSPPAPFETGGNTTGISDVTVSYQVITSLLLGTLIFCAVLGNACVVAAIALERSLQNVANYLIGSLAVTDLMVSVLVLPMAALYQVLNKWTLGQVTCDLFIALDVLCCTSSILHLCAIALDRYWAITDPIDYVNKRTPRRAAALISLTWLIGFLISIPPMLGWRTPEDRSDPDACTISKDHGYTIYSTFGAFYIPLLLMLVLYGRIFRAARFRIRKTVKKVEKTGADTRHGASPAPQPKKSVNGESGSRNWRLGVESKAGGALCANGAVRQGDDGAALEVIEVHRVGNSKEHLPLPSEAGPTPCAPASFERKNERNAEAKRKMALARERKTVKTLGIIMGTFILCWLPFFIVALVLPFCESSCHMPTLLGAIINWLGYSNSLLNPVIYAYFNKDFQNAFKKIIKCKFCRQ
Protocol: as §1, §2, §3

T1 sequence (P34969 1-432 limits assumed): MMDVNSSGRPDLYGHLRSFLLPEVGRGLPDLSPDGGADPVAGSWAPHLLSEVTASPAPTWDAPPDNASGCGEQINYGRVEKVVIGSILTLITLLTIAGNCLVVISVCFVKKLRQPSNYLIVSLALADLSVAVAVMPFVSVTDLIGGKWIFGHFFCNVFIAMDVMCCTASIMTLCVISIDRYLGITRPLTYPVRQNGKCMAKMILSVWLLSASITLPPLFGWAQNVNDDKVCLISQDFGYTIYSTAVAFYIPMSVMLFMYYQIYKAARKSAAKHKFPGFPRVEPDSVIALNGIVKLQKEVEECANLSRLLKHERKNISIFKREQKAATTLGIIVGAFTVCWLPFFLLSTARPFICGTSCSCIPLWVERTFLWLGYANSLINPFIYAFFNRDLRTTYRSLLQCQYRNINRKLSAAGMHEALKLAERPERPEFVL

Structure (SMILES)	Ki [1] [nM]	Ki (human 5HT2a receptors) [nM]	Ki [2] [nM]	Ki [3] [nM]	Ki (human 5-HT1a receptors) [nM]
N=C(NCc1cccc2ccccc12)NC(=O)N1CCC(C(N)=O)CC1 [Example 8, 1-[({imino[(1-naphthylmethyl)amino]methyl}amino)carbonyl]-4-piperidinecarboxamide]	12	40	> 2500	> 10000	> 4000
C[C@@H](O)CNC(=O)NC(=N)NCc1cccc2ccccc12 [Example 55, 1-({[[({[(2R)-2-Hydroxypropyl]amino}carbonyl)amino](imino)methyl]amino}methyl)naphthalene]	10	1.5	> 2500	2320	1720
CCOc1ccccc1CNC(=N)NC(=O)NC [Example 84, 1-Ethoxy-2-{[(imino{[(methylamino)carbonyl]amino}methyl)amino]methyl}benzene]	–	400	> 2500	8660	> 4000
N=C(NCc1cccc2ccccc12)NC(=O)NCC1CCN(Cc2cccc(C(F)(F)F)c2)CC1 [Example 57, 4-({[({Imino[(1-naphthylmethyl)amino]methyl}amino)carbonyl]amino}methyl)-1-[3-(trifluoromethyl)benzyl]piperidine]	59	130	1570	–	–
N=C(NCc1cccc2ccccc12)NC(=O)NC1CCCCC1O (stereo not shown) [Example 14, 1-({[({[(2-Hydroxycyclohexyl)amino]carbonyl}amino)(imino)methyl]amino}methyl)naphthalene]	11	–	460	1250	–
N=C(NCCc1ccccc1)NC(=O)N1CCN(Cc2ccccc2)CC1 [Example 61, N-[(4-Benzyl-1-piperazinyl)carbonyl]-N′-phenethylguanidine]	490	1800	> 2500	–	930
CC(O)CNC(=O)NC(=N)NCc1cccc2ccccc12 (stereo not shown) [Example 30, 1({[({[(2-Hydroxypropyl)amino]carbonyl}amino)(imino)methyl]amino}methyl) naphthalene]	13	–	1580	1510	–
COCCCNC(=O)NC(=N)NCc1cccc2ccccc12 [Example 38, 1-(3-Imino-5-oxo-10-oxa-2,4,6-triazaundec-1-yl)naphthalene]	14	–	> 2500	1180	–
N=C(NCc1cccc2ccccc12)NC(=O)NCCCn1ccnc1 [Example 11]	25	–	920	910	–
CN1CCCC1CCNC(=O)NC(=N)NCc1cccc2ccccc12 (stereo not shown) [Example 13]	32	–	1910	3050	–

Results, then the molecule that gave them:

Ki [1] [nM]	Ki (human 5HT2a receptors) [nM]	Ki [2] [nM]	Ki [3] [nM]	Ki (human 5-HT1a receptors) [nM]	Structure (SMILES)
32	6.4	> 2500	2860	500	N=C(NCc1cccc2ccccc12)NC(=O)NCC1CCN(Cc2ccc(F)cc2F)CC1 [Example 67]
91	4.2	> 2500	–	–	N=C(NCc1cccc2ccccc12)NC(=O)NCC1CCN(Cc2noc(-c3ccccc3)n2)CC1 [Example 64, 4-({[({Imino[(1-naphthylmethyl)amino]methyl}amino)carbonyl]amino}methyl)-1-[(5-phenyl-1,2,4-oxadiazol-3-yl)methyl]piperidine]
85	2.6	> 2500	–	–	N#Cc1ccc(CN2CCC(CNC(=O)NC(=N)NCc3cccc4ccccc34)CC2)cc1 [Example 59, 1-(4-Cyanobenzyl)-4-({[({imino[(1-naphthylmethyl)amino]methyl}amino)carbonyl]amino}methyl)piperidine]
22	9.8	490	–	–	Cc1cc(C)cc(CN2CCC(CNC(=O)NC(=N)NCc3cccc4ccccc34)CC2)c1 [Example 62, 1-(3,5-Dimethylbenzyl)4-({[({imino[(1-naphthylmethyl)amino]methyl}amino)carbonyl]amino}methyl)piperidine]
27	11	720	–	–	N=C(NCc1cccc2ccccc12)NC(=O)NCC1CCN(Cc2cccc3ccccc23)CC1 [Example 69, 4-({[({Imino[(1-naphthylmethyl)amino]methyl}amino)carbonyl]amino}methyl)-1-(1-naphthylmethyl)piperidine]
46	–	> 2500	3200	–	N=C(NCc1cccc2ccccc12)NC(=O)NCC1CCNCC1 [Example 2, 4-({[({Imino[(1-naphthylmethyl)amino]methyl}amino)carbonyl]amino}methyl)piperidine]
17	0.43	1030	350	–	N=C(NCc1cccc2ccccc12)NC(=O)NCc1cccnc1 [Example 18, 3-({[({Imino[(1-naphthylmethyl)amino]methyl}amino)carbonyl]amino}methyl)pyridine]
2.6	0.4	290	170	–	N=C(NCc1cccc2ccccc12)NC(=O)N[C@H](CO)c1ccccc1 [Example 15, 1-({[[({[(1S)-2-Hydroxy-1-phenylethyl]amino}carbonyl)amino](imino)methyl]amino}methyl)naphthalene]

— patent US20040044037A1, “Amidino-urea serotonin receptor ligands and compositions, their pharmaceutical uses, and methods for their snythesis” (priority 2003, published 2004)
